According to patent publication US6689754B1, “Heterocyclic glycyl β-alanine derivatives” (G. D. Searle & Co., priority 1998, dated 2004):
Counter-ions that a name gives are not always drawn.

What was measured:
[1] = biological target: T1, Human vitronectin receptor (αvβ3) (Homo sapiens, UniProt P05106+P06756); assay: Vitronectin adhesion assay: solid phase receptor assay, competition with biotinylated vitronectin; assay type: binding; settings: purified human vitronectin receptor; 1 nM biotinylated vitronectin
T1 construct: Human vitronectin receptor (αvβ3) was purified from human placenta; from tissue; host or cells: human placenta
Procedure: Vitronectin Adhesion Assay
Human vitronectin receptor (αvβ3) was purified from human placenta as previously described [Pytela et al., Methods in Enzymology, 144:475-489 (1987)]. Human vitronectin was purified from fresh frozen plasma as previously described [Yatohgo et al., Cell Structure and Function, 13:281-292 (1988)]. Biotinylated human vitronectin was prepared by coupling NHS-biotin from Pierce Chemical Company (Rockford, Ill.) to purified vitronectin as previously described [Charo et al., J. Biol. Chem., 266(3):1415-1421 (1991)]. Assay buffer, OPD substrate tablets, and RIA grade BSA were obtained from Sigma (St. Louis, Mo.). Anti-biotin antibody was obtained from Calbiochem (La Jolla, Calif.). Linbro microtiter plates were obtained from Flow Labs (McLean, Va.). ADP reagent was obtained from Sigma (St. Louis, Mo.).
This assay was essentially the same as previously reported [Niiya et al., Blood, 70:475-483 (1987)]. The purified human vitronectin receptor (αvβ3) was diluted from stock solutions to 1.0 μg/mL in Tris-buffered saline containing 1.0 mM Ca^++, Mg^++, and Mn^++, pH 7.4 (TBS^+++). The diluted receptor was immediately transferred to Linbro microtiter plates at 100 μL/well (100 ng receptor/well). The plates were sealed and incubated overnight at 4° C. to allow the receptor to bind to the wells. All remaining steps were at room temperature. The assay plates were emptied and 200 μL of 1% RIA grade BSA in TBS^+++ (TBS^+++/BSA) were added to block exposed plastic surfaces. Following a 2 hour incubation, the assay plates were washed with TBS^+++ using a 96 well plate washer. Logarithmic serial dilution of the test compound and controls were made starting at a stock concentration of 2 mM and using 2 nM biotinylated vitronectin in TBS^+++/BSA as the diluent. This premixing of labeled ligand with test (or control) ligand, and subsequent transfer of 50 μL aliquots to the assay plate was carried out with a CETUS Propette robot; the final concentration of the labeled ligand was 1 nM and the highest concentration of test compound was 1.0×10^−4 M. The competition occurred for two hours after which all wells were washed with a plate washer as before. Affinity purified horseradish peroxidase labeled goat anti-biotin antibody was diluted 1:3000 in TBS^+++/BSA and 125 μL were added to each well. After 30 minutes, the plates were washed and incubated with OPD/H2O2 substrate in 100 mM/L Citrate buffer, pH 5.0. The plate was read with a microtiter plate reader at a wavelength of 450 nm and when the maximum-binding control wells reached an absorbance of about 1.0, the final A450 were recorded for analysis. The data were analyzed using a macro written for use with the EXCELJ spreadsheet program. The mean, standard deviation, and % CV were determined for duplicate concentrations. The mean A450 values were normalized to the mean of four maximum-binding controls (no competitor added)(B-MAX). The normalized values were subjected to a four parameter curve fit algorithm [Rodbard et al., Int.

[2] = biological target: T2, Human fibrinogen receptor IIb/IIIa (Homo sapiens, UniProt P05106+P08514); assay: Purified IIb/IIIa receptor assay: solid phase receptor assay, competition with biotinylated vitronectin; assay type: binding; settings: 1 nM biotinylated vitronectin
T2 construct: Human fibrinogen receptor ([…]) was purified from outdated platelets; from tissue; host or cells: outdated human platelets
From the text: Purified IIb/IIIa Receptor Assay
Human fibrinogen receptor ([…]) was purified from outdated platelets. (Pytela, R., Pierschbacher, M. D., Argraves, S., Suzuki, S., and Rouslahti, E. “Arginine-Glycine-Aspartic acid adhesion receptors”, Methods in Enzymology 144(1987):475-489.) Human vitronectin was purified from fresh frozen plasma as described in Yatohgo, T., Izumi, M., Kashiwagi, H., and Hayashi, M., “Novel purification of vitronectin from human plasma by heparin affinity chromatography,” Cell Structure and Function 13(1988):281-292. Biotinylated human vitronectin was prepared by coupling NHS-biotin from Pierce Chemical Company (Rockford, Ill.) to purified vitronectin as previously described. (Charo, I. F., Nannizzi, L., Phillips, D. R., Hsu, M. A., Scarborough, R. M., “Inhibition of fibrinogen binding to GP IIb/IIIa by a GP IIIa peptide”, J. Biol. Chem. 266(3)(1991): 1415-1421.) Assay buffer, OPD substrate tablets, and RIA grade BSA were obtained from Sigma (St. Louis, Mo.). Anti-biotin antibody was obtained from Calbiochem (La Jolla, Calif.). Linbro microtiter plates were obtained from Flow Labs (McLean, Vs.). ADP reagent was obtained from Sigma (St. Louis, Mo.).
This assay is essentially the same reported in Niiya, K., Hodson, E., Bader, R., Byers-Ward, V. Koziol, J. A., Plow, E. F. and Ruggeri, Z. M., “Increased surface expression of the membrane glycoprotein IIb/IIIa complex induced by platelet activation: Relationships to the binding of fibrinogen and platelet aggregation”, Blood 70(1987):475-483. The purified human fibrinogen receptor ([…]) was diluted from stock solutions to 1.0 μg/mL in Tris-buffered saline containing 1.0 mM Ca^++, Mg^++, and Mn^++, pH 7.4 (TBS^+++). The diluted receptor was immediately transferred to Linbro microtiter plates at 100 μL/well (100 ng receptor/well). The plates were sealed and incubated overnight at 4° C. to allow the receptor to bind to the wells. All remaining Steps were at room temperature. The assay plates were emptied and 200 μL of 1% RIA grade BSA in TBS^+++ (TBS^+++/BSA) were added to block exposed plastic surfaces. Following a 2 hour incubation, the assay plates were washed with TBS^+++ using a 96 well plate washer. Logarithmic serial dilution of the test compound and controls were made starting at a stock concentration of 2 mM and using 2 nM biotinylated vitronectin in TBS^+++/BSA as the diluent. This premixing of labeled ligand with test (or control) ligand, and subsequent transfer of 50 μL aliquots to the assay plate was carried out with a CETUS Propette robot; the final concentration of the labeled ligand was 1 nM and the highest concentration of test compound was 1.0×10^−4 M. The competition occurred for two hours after which all wells were washed with a plate washer as before. Affinity purified horseradish peroxidase labeled goat anti-biotin antibody was diluted 1:3000 in TBS^+++/BSA and 125 μL were added to each well. After 30 minutes, the plates were washed and incubated with […] substrate in 100 mM/L citrate buffer, pH 5.0. The plate was read with a microtiter plate reader at a wavelength of 450 nm and when the maximum-binding control wells reached an absorbance of about 1.0, the final A450 were recorded for analysis. The data were analyzed using a macro written for use with the EXCELJ spreadsheet program. The mean, standard deviation, and % CV were determined for duplicate concentrations. The mean A450 values were normalized to the mean of four maximum-binding controls (no competitor added)(B-MAX). The normalized values were subjected to a four parameter curve fit algorithm, [Robard et al., Int. Atomic Energy Agency.

Row | IC50 [1] | IC50 [2] | Compound
1 | 0.2 nM | 520 nM | O=C(O)C[C@H](NC(=O)CNC(=O)c1c[nH]c(=O)c(NC2=NCC(O)CN2)c1)c1cc(Cl)cc(Br)c1O (stereo partly drawn) [Example 33]
2 | 1090 nM | 1680 nM | O=C(O)C[C@H](NC(=O)CNC(=O)c1sccc1CNC1=NCC(O)CN1)c1cc(Cl)cc(Cl)c1O (stereo partly drawn) [Example 45]
3 | 1.97 nM | 2690 nM | COCCN/C(N)=N/c1cc(C(=O)NCC(=O)N[C@@H](CC(=O)O)c2cc(Cl)cc(Cl)c2O)c[nH]c1=O [Example 46]
4 | 4.3 nM | 27900 nM | O=C(O)C[C@@H](NC(=O)CNC(=O)c1c[nH]c(=O)c(NC2=NCCN2)c1)c1cc(Cl)cc(Cl)c1O [Example 48]
5 | 0.14 nM | 340 nM | O=C(O)C[C@H](NC(=O)CNC(=O)c1c[nH]c(=O)c(NC2=NCC(O)CN2)c1)c1cc(Br)cc(Br)c1 (stereo partly drawn) [Example 35]
6 | 3940 nM | 1800 nM | O=C(O)C[C@H](NC(=O)CNC(=O)c1cc(=O)cc(NC2=NCC(O)CN2)[nH]1)c1cc(Cl)cc(Br)c1O (stereo partly drawn) [Example 31]
7 | 2.1 nM | 49 nM | O=C(O)CC(NC(=O)CNC(=O)c1cncc(NC2=NCC(O)CN2)c1)c1cc(Cl)cc(Br)c1O (stereo not drawn) [Example 32]
8 | 278 nM | 115 nM | Cn1cc(NC2=NCC(O)CN2)cc1C(=O)NCC(=O)N[C@@H](CC(=O)O)c1cc(Cl)cc(Cl)c1O (stereo partly drawn) [Example 38]
9 | 1.13 nM | 970 nM | O=C(O)C[C@H](NC(=O)CNC(=O)c1c[nH]c(=O)c(NC2=NCCN2)c1)c1cc(Br)cc(Br)c1O [Example 36]

Second part, the compound before the results:

Row | Compound | IC50 [1] | IC50 [2]
10 | O=C(O)CC(NC(=O)CNC(=O)c1c[nH]c(=O)c(NC2=NCC(O)CN2)c1)c1cc(Br)cc(Br)c1O (stereo not drawn) [Example 29] | 0.46 nM | 1380 nM
11 | O=C(O)C[C@H](NC(=O)CNC(=O)c1cncc(N=C2NCC(O)CN2)c1)c1cc(Cl)cc(Cl)c1O (stereo partly drawn) [Example 10] | 0.14 nM | 161 nM
12 | Cn1nc(C(=O)NCC(=O)NC(CC(=O)O)c2cc(Cl)cc(Cl)c2O)cc1NC1=NCCN1 (stereo not drawn) [Example 24, N-[[(4,5-dihydro-1H-imidazol-2-yl)amino]-1-methyl-1H-pyrazol-3yl]carbonyl]glycyl-3-(3,5-dichloro-2-hydroxyphenyl)-β-alanine, (trifluoroacetate) salt] | 91200 nM | 15800 nM
13 | O=C(O)CC(NC(=O)CNC(=O)c1ccc(NC2=NCCN2)s1)c1cc(Cl)cc(Cl)c1O (stereo not drawn) [Example 16, N-[[5-(4,5,-dihydro-1H-imidazol-2-yl)amino]-2-thienyl]carbonyl]glycyl]-3-(3,5-dichloro-2-hydroxyphenyl)-β-alanine, trifluoroacetate salt] | 22000 nM | 6180 nM
14 | Cc1sc(C(=O)NCC(=O)N[C@@H](CC(=O)O)c2cc(Cl)cc(Cl)c2O)cc1NC1=NCCN1 [Example 15, (3S)-N-[[4-(4,5,-dihydro-1H-imidazol-2-yl)amino]-5-methyl-2-thienyl]carbonyl]glycyl-3-(3,5-dichloro-2-hydroxyphenyl)-β-alanine, trifluoroacetate salt] | 25.4 nM | 1040 nM
15 | COc1ncc(C(=O)NCC(=O)N[C@@H](CC(=O)O)c2cc(Cl)cc(Cl)c2O)cc1NC1=NCC(O)CN1 (stereo partly drawn) [Example 27] | 0.26 nM | 482 nM
16 | O=C(O)CC(NC(=O)CNC(=O)c1cncc(NC2=NCCCN2)c1)c1cc(Cl)cc(Cl)c1O (stereo not drawn) [Example 6] | 0.27 nM | 1260 nM
17 | N=C(N)Nc1cncc(C(=O)NCC(=O)NC(CC(=O)O)c2cc(Cl)cc(Br)c2O)c1 (stereo not drawn) [Example 1] | 1.58 nM | 313 nM
18 | O=C(O)CC(NC(=O)CNC(=O)c1cc(N=C2NCCN2)c[nH]c1=O)c1cc(Cl)cc(Cl)c1O (stereo not drawn) [Example 23, N-[[5-(4,5,-dihydro-1H-imidazol-2-yl)amino]-1,2-dihydro-2-oxo-3-pyridinyl]-carbonyl]glycyl-3-(3,5-dichloro-2-hydroxyphenyl)-β-alanine, (trifluoroacetate) salt] | 3600 nM | 10100 nM
19 | O=C(O)CC(NC(=O)CNC(=O)c1cncc(NC2=NCCN2)c1)c1cc(Cl)cc(Br)c1O (stereo not drawn) [Example 4] | 0.74 nM | 581 nM
20 | O=C(O)C[C@H](NC(=O)CNC(=O)c1cncc(NC2=NCC(O)CN2)c1)c1cc(Br)cc(I)c1O (stereo partly drawn) [Example 26] | 0.71 nM | 831 nM
21 | COc1cc(NC2=NCC(O)CN2)nc(C(=O)NCC(=O)N[C@@H](CC(=O)O)c2cc(Cl)cc(Br)c2O)c1 (stereo partly drawn) [Example 30] | 155 nM | 29.5 nM
22 | O=C(O)C[C@H](NC(=O)CNC(=O)c1c[nH]c(=O)c(NC2=NCC(O)CN2)c1)c1cc(Cl)cc(Cl)c1O (stereo partly drawn) [Example 21, (3S)-N-[[1,6-dihydro-6-oxo-5-[(1,4,5,6-tetrahydro-5-hydroxy-2-pyrimidinyl)amino]-3-pyridinyl]carbonyl]glycyl-3-(3,5-dichloro-2-hydroxyphenyl)-β-alanine, trifluoroacetate salt] | 0.2 nM | 551 nM
23 | COCCOCn1cc(C(=O)NCC(=O)NC(CC(=O)O)c2cc(Br)cc(Br)c2O)cc(NC2=NCC(O)CN2)c1=O (stereo not drawn) [Example 28] | 0.43 nM | 984 nM
24 | O=C(O)CC(NC(=O)CNC(=O)c1c[nH]c(=O)c(NC2=NCCN2)c1)c1cc(Cl)cc(Cl)c1O (stereo not drawn) [Example 20, N-[[5-[(4,5,-dihydro-1H-imidazol-2-yl)amino]-1,6-dihydro-6-oxo-3-pyridinyl]-carbonyl]glycyl-3-(3,5-dichloro-2-hydroxyphenyl)-β-alanine, (trifluoroacetate) salt] | 0.32 nM | 2020 nM
